Results taken from ChEMBL document CHEMBL3046669, “Insecticide resistance of the oriental fruit fly, Bactrocera dorsalis (Hendel) (Diptera: Tephritidae), in mainland China” (2011).
Values after ≈ are worked out from the molar mass of the structure shown.

Tests used:
Format in all cases: functional
[1] = test system: Bactrocera dorsalis; assay: Insecticidal activity against adult Bactrocera dorsalis NN08 assessed as mortality after 24 hr; details: NN08, 24 h
[2] = test system: Bactrocera dorsalis; assay: Insecticidal activity against adult Bactrocera dorsalis CS07 assessed as mortality after 24 hr; details: CS07, 24 h
[3] = test system: Bactrocera dorsalis; assay: Resistance ratio of LC50 for adult Bactrocera dorsalis ZJ07 to LC50 for adult Bactrocera dorsalis after 24 hr
[4] = test system: Bactrocera dorsalis; assay: Insecticidal activity against adult Bactrocera dorsalis FZ07 assessed as mortality after 24 hr; details: FZ07, 24 h
[5] = test system: Bactrocera dorsalis; assay: Resistance ratio of LC50 for adult Bactrocera dorsalis HZ07 to LC50 for adult Bactrocera dorsalis after 24 hr
[6] = test system: Bactrocera dorsalis; assay: Insecticidal activity against adult Bactrocera dorsalis HZ08 assessed as mortality after 24 hr; details: HZ08, 24 h
[7] = test system: Bactrocera dorsalis; assay: Insecticidal activity against adult Bactrocera dorsalis HK07 assessed as mortality after 24 hr; details: HK07, 24 h
[8] = test system: Bactrocera dorsalis; assay: Resistance ratio of LC50 for adult Bactrocera dorsalis GZ08 to LC50 for adult Bactrocera dorsalis after 24 hr
[9] = test system: Bactrocera dorsalis; assay: Resistance ratio of LC50 for adult Bactrocera dorsalis MM07 to LC50 for adult Bactrocera dorsalis after 24 hr
[10] = test system: Bactrocera dorsalis; assay: Resistance ratio of LC50 for adult Bactrocera dorsalis WX07 to LC50 for adult Bactrocera dorsalis after 24 hr
[11] = test system: Bactrocera dorsalis; assay: Resistance ratio of LC50 for adult Bactrocera dorsalis FZ08 to LC50 for adult Bactrocera dorsalis after 24 hr
[12] = test system: Bactrocera dorsalis; assay: Resistance ratio of LC50 for adult Bactrocera dorsalis HY08 to LC50 for adult Bactrocera dorsalis after 24 hr
[13] = test system: Bactrocera dorsalis; assay: Insecticidal activity against adult Bactrocera dorsalis MM07 assessed as mortality after 24 hr; details: MM07, 24 h
[14] = test system: Bactrocera dorsalis; assay: Insecticidal activity against adult Bactrocera dorsalis FZ08 assessed as mortality after 24 hr; details: FZ08, 24 h
[15] = test system: Bactrocera dorsalis; assay: Resistance ratio of LC50 for adult Bactrocera dorsalis NN07 to LC50 for adult Bactrocera dorsalis after 24 hr
[16] = test system: Bactrocera dorsalis; assay: Insecticidal activity against adult Bactrocera dorsalis HZ07 assessed as mortality after 24 hr; details: HZ07, 24 h
[17] = test system: Bactrocera dorsalis; assay: Resistance ratio of LC50 for adult Bactrocera dorsalis YJ08 to LC50 for adult Bactrocera dorsalis after 24 hr
[18] = test system: Bactrocera dorsalis; assay: Insecticidal activity against adult Bactrocera dorsalis WX07 assessed as mortality after 24 hr; details: WX07, 24 h
[19] = test system: Bactrocera dorsalis; assay: Resistance ratio of LC50 for adult Bactrocera dorsalis YJ07 to LC50 for adult Bactrocera dorsalis after 24 hr
[20] = test system: Bactrocera dorsalis; assay: Insecticidal activity against adult Bactrocera dorsalis CH07 assessed as mortality after 24 hr; details: CH07, 24 h
[21] = test system: Bactrocera dorsalis; assay: Insecticidal activity against adult Bactrocera dorsalis QY08 assessed as mortality after 24 hr; details: QY08, 24 h
[22] = test system: Bactrocera dorsalis; assay: Insecticidal activity against adult Bactrocera dorsalis GZ08 assessed as mortality after 24 hr; details: GZ08, 24 h
[23] = test system: Bactrocera dorsalis; assay: Insecticidal activity against adult Bactrocera dorsalis QY07 assessed as mortality after 24 hr; details: QY07, 24 h
[24] = test system: Bactrocera dorsalis; assay: Insecticidal activity against adult Bactrocera dorsalis ZJ07 assessed as mortality after 24 hr; details: ZJ07, 24 h
[25] = test system: Bactrocera dorsalis; assay: Resistance ratio of LC50 for adult Bactrocera dorsalis QY08 to LC50 for adult Bactrocera dorsalis after 24 hr
[26] = test system: Bactrocera dorsalis; assay: Insecticidal activity against adult Bactrocera dorsalis C-R-45 assessed as mortality
[27] = test system: Bactrocera dorsalis; assay: Insecticidal activity against adult Bactrocera dorsalis assessed as mortality after 24 hr
[28] = test system: Bactrocera dorsalis; assay: Insecticidal activity against adult Bactrocera dorsalis GZ07 assessed as mortality after 24 hr; details: GZ07, 24 h
[29] = test system: Bactrocera dorsalis; assay: Resistance ratio of LC50 for adult Bactrocera dorsalis CS07 to LC50 for adult Bactrocera dorsalis after 24 hr
[30] = test system: Bactrocera dorsalis; assay: Resistance ratio of LC50 for adult Bactrocera dorsalis FZ07 to LC50 for adult Bactrocera dorsalis after 24 hr
[31] = test system: Bactrocera dorsalis; assay: Resistance ratio of LC50 for adult Bactrocera dorsalis HK08 to LC50 for adult Bactrocera dorsalis after 24 hr
[32] = test system: Bactrocera dorsalis; assay: Insecticidal activity against adult Bactrocera dorsalis CS08 assessed as mortality after 24 hr; details: CS08, 24 h
[33] = test system: Bactrocera dorsalis; assay: Insecticidal activity against adult Bactrocera dorsalis HY07 assessed as mortality after 24 hr; details: HY07, 24 h
[34] = test system: Bactrocera dorsalis; assay: Insecticidal activity against adult Bactrocera dorsalis HY08 assessed as mortality after 24 hr; details: HY08, 24 h
[35] = test system: Bactrocera dorsalis; assay: Resistance ratio of LC50 for adult Bactrocera dorsalis HK07 to LC50 for adult Bactrocera dorsalis after 24 hr
[36] = test system: Bactrocera dorsalis; assay: Resistance ratio of LC50 for adult Bactrocera dorsalis HY07 to LC50 for adult Bactrocera dorsalis after 24 hr
[37] = test system: Bactrocera dorsalis; assay: Resistance ratio of LC50 for adult Bactrocera dorsalis QY07 to LC50 for adult Bactrocera dorsalis after 24 hr
[38] = test system: Bactrocera dorsalis; assay: Insecticidal activity against adult Bactrocera dorsalis NN07 assessed as mortality after 24 hr; details: NN07, 24 h
[39] = test system: Bactrocera dorsalis; assay: Resistance ratio of LC50 for adult Bactrocera dorsalis C-R-45 to LC50 for adult Bactrocera dorsalis
[40] = test system: Bactrocera dorsalis; assay: Insecticidal activity against adult Bactrocera dorsalis MM08 assessed as mortality after 24 hr; details: MM08, 24 h
[41] = test system: Bactrocera dorsalis; assay: Resistance ratio of LC50 for adult Bactrocera dorsalis CH07 to LC50 for adult Bactrocera dorsalis after 24 hr
[42] = test system: Bactrocera dorsalis; assay: Resistance ratio of LC50 for adult Bactrocera dorsalis NN08 to LC50 for adult Bactrocera dorsalis after 24 hr
[43] = test system: Bactrocera dorsalis; assay: Insecticidal activity against adult Bactrocera dorsalis HK08 assessed as mortality after 24 hr; details: HK08, 24 h
[44] = test system: Bactrocera dorsalis; assay: Insecticidal activity against adult Bactrocera dorsalis YJ07 assessed as mortality after 24 hr; details: YJ07, 24 h
[45] = test system: Bactrocera dorsalis; assay: Insecticidal activity against adult Bactrocera dorsalis YJ08 assessed as mortality after 24 hr; details: YJ08, 24 h
[46] = test system: Bactrocera dorsalis; assay: Insecticidal activity against adult Bactrocera dorsalis C-R-48 assessed as mortality
[47] = test system: Bactrocera dorsalis; assay: Resistance ratio of LC50 for adult Bactrocera dorsalis CS08 to LC50 for adult Bactrocera dorsalis after 24 hr
[48] = test system: Bactrocera dorsalis; assay: Resistance ratio of LC50 for adult Bactrocera dorsalis MM08 to LC50 for adult Bactrocera dorsalis after 24 hr
[49] = test system: Bactrocera dorsalis; assay: Resistance ratio of LC50 for adult Bactrocera dorsalis WX08 to LC50 for adult Bactrocera dorsalis after 24 hr
[50] = test system: Bactrocera dorsalis; assay: Insecticidal activity against adult Bactrocera dorsalis WX08 assessed as mortality after 24 hr; details: WX08, 24 h
[51] = test system: Bactrocera dorsalis; assay: Resistance ratio of LC50 for adult Bactrocera dorsalis CH08 to LC50 for adult Bactrocera dorsalis after 24 hr
[52] = test system: Bactrocera dorsalis; assay: Insecticidal activity against adult Bactrocera dorsalis CH08 assessed as mortality after 24 hr; details: CH08, 24 h
[53] = test system: Bactrocera dorsalis; assay: Resistance ratio of LC50 for adult Bactrocera dorsalis C-R-48 to LC50 for adult Bactrocera dorsalis
[54] = test system: Bactrocera dorsalis; assay: Resistance ratio of LC50 for adult Bactrocera dorsalis HZ08 to LC50 for adult Bactrocera dorsalis after 24 hr
[55] = test system: Bactrocera dorsalis; assay: Resistance ratio of LC50 for adult Bactrocera dorsalis GZ07 to LC50 for adult Bactrocera dorsalis after 24 hr

CC1(C)[C@H](C=C(Cl)Cl)[C@H]1C(=O)O[C@@H](C#N)c1cccc(Oc2ccccc2)c1 [BETA-CYPERMETHRIN]
LC50 [1]: 12.5 µg/mL (≈ 30 µM)
LC50 [2]: 15.1 µg/mL (≈ 36.2 µM)
RatioLC50 [3]: 3.01
LC50 [4]: 13.3 µg/mL (≈ 31.9 µM)
RatioLC50 [5]: 4.57
LC50 [6]: 70.7 µg/mL (≈ 170 µM)
LC50 [7]: 15.5 µg/mL (≈ 37.2 µM)
RatioLC50 [8]: 9.71
RatioLC50 [9]: 17
RatioLC50 [10]: 9.59
RatioLC50 [11]: 8.17
RatioLC50 [12]: 17.06
LC50 [13]: 42.3 µg/mL (≈ 102 µM)
LC50 [14]: 20.4 µg/mL (≈ 48.9 µM)
RatioLC50 [15]: 3.19
LC50 [16]: 11.4 µg/mL (≈ 27.3 µM)
RatioLC50 [17]: 4.23
LC50 [18]: 23.9 µg/mL (≈ 57.3 µM)
RatioLC50 [19]: 1.1
LC50 [20]: 64.1 µg/mL (≈ 154 µM)
LC50 [21]: 12.2 µg/mL (≈ 29.4 µM)
LC50 [22]: 24.2 µg/mL (≈ 58.1 µM)
LC50 [23]: 15.1 µg/mL (≈ 36.4 µM)
LC50 [24]: 7.49 µg/mL (≈ 18 µM)
RatioLC50 [25]: 4.91
LC90 [26]: 7082.07 µg/mL (≈ 17000 µM)
LC50 ([26]; Bactrocera dorsalis, C-R-45): 820 µg/mL (≈ 1970 µM)
LC90 [27]: 3.6 µg/mL (≈ 8.65 µM)
LC50 ([27]; Bactrocera dorsalis, 24 h): 2.49 µg/mL (≈ 5.98 µM)
LC50 [28]: 46.3 µg/mL (≈ 111 µM)
RatioLC50 [29]: 6.06
RatioLC50 [30]: 5.34
RatioLC50 [31]: 12.17
LC50 [32]: 14.8 µg/mL (≈ 35.4 µM)
LC50 [33]: 32.7 µg/mL (≈ 78.5 µM)
LC50 [34]: 42.5 µg/mL (≈ 102 µM)
RatioLC50 [35]: 6.23
RatioLC50 [36]: 13.14
RatioLC50 [37]: 6.08
LC50 [38]: 7.95 µg/mL (≈ 19.1 µM)
RatioLC50 [39]: 329.3
LC50 [40]: 34.2 µg/mL (≈ 82.1 µM)
RatioLC50 [41]: 25.74
RatioLC50 [42]: 5.02
LC50 [43]: 30.3 µg/mL (≈ 72.8 µM)
LC50 [44]: 2.74 µg/mL (≈ 6.58 µM)
LC50 [45]: 10.5 µg/mL (≈ 25.3 µM)
LC90 [46]: 3959.5 µg/mL (≈ 9510 µM)
LC50 ([46]; Bactrocera dorsalis, C-R-48): 830 µg/mL (≈ 1990 µM)
RatioLC50 [47]: 5.93
RatioLC50 [48]: 13.72
RatioLC50 [49]: 44.03
LC50 [50]: 110 µg/mL (≈ 263 µM)
RatioLC50 [51]: 24.35
LC50 [52]: 60.6 µg/mL (≈ 146 µM)
RatioLC50 [53]: 333.42
RatioLC50 [54]: 28.39
RatioLC50 [55]: 18.6
